We go through 4 molecules from patent US12076694B2, “Method of removing protein-bound substances by electrically conductive polymer” (Ming Chi University of Technology, priority 2019, dated 2024).

For series [1] the following is noted: comparison value for the anticoagulant; cited from earlier work.
The target of a further series is BSA (Bos taurus, UniProt P02769). The experiment in a line: Protein binding ratio by centrifugal ultrafiltration (30-kDa cutoff). The settings on record: 50 ppm toxin, BSA 4-40 g L^−1 in PBS buffer.
BSA, sequence (P02769 25-607): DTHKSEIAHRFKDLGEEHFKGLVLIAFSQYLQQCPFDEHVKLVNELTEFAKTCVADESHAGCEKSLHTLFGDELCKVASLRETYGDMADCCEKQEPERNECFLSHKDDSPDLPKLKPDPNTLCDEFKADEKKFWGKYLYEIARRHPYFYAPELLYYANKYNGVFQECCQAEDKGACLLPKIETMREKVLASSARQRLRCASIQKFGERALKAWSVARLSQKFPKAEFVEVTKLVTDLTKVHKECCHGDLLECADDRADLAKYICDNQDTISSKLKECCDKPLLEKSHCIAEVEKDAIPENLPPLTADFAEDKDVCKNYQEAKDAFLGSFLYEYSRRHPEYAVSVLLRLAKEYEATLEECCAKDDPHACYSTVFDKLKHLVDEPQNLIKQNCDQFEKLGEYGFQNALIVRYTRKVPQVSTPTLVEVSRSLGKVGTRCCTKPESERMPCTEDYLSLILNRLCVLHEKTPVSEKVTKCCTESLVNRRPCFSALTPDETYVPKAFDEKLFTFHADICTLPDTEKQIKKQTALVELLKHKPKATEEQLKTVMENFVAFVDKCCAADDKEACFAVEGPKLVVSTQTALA

Experimental for BSA: For the dialysis experiment of PBUT pre-bonded BSA solution, 50 ppm of targeted uremic toxins were mixed with various amount of BSA (4, 20, and 40 g L^−1) and shaken for 24 h at 37° C. Collected samples (1 mL) were purified through centrifugation (12,000×g, 25° C., 5 min) using a Vivaspin centrifuge (Vivaspin 2, 30 kDa cutoff, GE Healthcare); the PBUTs were separated into the bottom device, thereby collecting BSA proteins from the top device.
Because 4 g L^−1 BSA is closer to the normal content in mimic blood (1.5 g urea, 0.04 g L^−1 lysozyme, and 1 g L^−1 BSA), the BSA solution having the concentration of 4 g L^−1 was selected for the subsequent dialysis experiments.

As to heparin, the zeta potential in series [1] is reported as −39 mV.

On to `O=C(O)CNC(=O)c1ccccc1` [HA, hippuric acid], for which, at BSA, the estimated protein-binding ratio was 18.3-36.9%.

Take `CN1CC(=O)NC1=N` [CRT, creatinine]: on BSA, the estimated protein-binding ratio is 1.0-2.1%.

Regarding `Cc1ccc(O)cc1` [PC, p-cresol], the estimated protein-binding ratio on BSA is reported as 89.4-94.4%.
